Data as given in patent US4789587A, “(1,3-dioxolan-2-yl-methyl)-1H-imidazoles as bactericidal and/or fungicidal agents” (IRE-Celltarg, S.A., priority 1986, dated 1988).
≈ marks a conversion by molar mass, not a printed value. Where two headings read alike, the source gives them in different places.

Columns and labels:
Assay type in all cases: cell-based
[1] = test system: Leydig tumor cells from mice (I-10, ATCC No. CCL83); assay: in vitro synthesis of steroids: progesterone secretion by Leydig tumor cells induced by cAMP; conditions: for Progesterone (1): dibutyryl-cAMP 1×10^-4 M, 3 hours incubation with compound, control 3546, basal 554; for progesterone secretion, % of cAMP-induced control at 0.94 µM: Mus musculus, Leydig, read-out: Progesterone (2) % enzyme activity relative to control
From the text: (§1) Ketoconazole and its derivatives reduce the plasma levels of testosterone by inhibiting certain enzymes involved in its biogenesis. Progesterone is a key intermediate in the biogenesis of steroid hormones as it leads especially to estradiol in the ovary and to testosterone in the testicles. The inhibiting power of ketoconazole and its derivatives on the enzyme chain for the biogenesis of steroid hormones may be assessed by measuring the conversion of cholesterol into progesterone. A method of determination which enables this property to be quantified is described below.
(§2) Leydig tumor cells from mice (I-10, ATCC No. CCL83) were grown in a HAM's F10 medium to which 15% of horse serum and 2.5% of foetal calf serum were added. These cells have the property of secreting progesterone and a product of reduction of the latter which is no longer metabolized, 20α-hydroxy-4-pregnen-3-one. This secretion of steroids is induced by the addition of cAMP in the form of its dibutyryl ester (N^6, O^2' -dibutyryladenosine 3', 5'-cyclic monophosphate sodium salt monohydrate (Sigma)). The cells are subcultured in 25 cm^2 falcon dishes and maintained under CO2 (10%). When these become confluent (±1 mg/ml proteins) the medium is replaced with fresh medium containing dibutyryl-cAMP (1×10^-4 M). After incubating for 1 hour with the cAMP, the ketoconazole or its derivatives are added (9.4×10^-7 M) to the culture medium. After incubating for a further period of 3 hours, the supernatants are collected and will be used for the analysis of steroids by HPLC. The cells are rinsed with PBS (phosphate buffered saline: NaCl 0.15M, KCl 2.7 mM, Na2 HPO4 -KH2 PO4 3 mM pH 7.4) and after treating with DOC (deoxycholic acid), the determination of proteins is carried out by the Lowry method.
(§3) For the determination of steroids, 2 ml of the culture medium are brought into contact with 5 ml of ether. The tubes are vortexed for 2 minutes. After freezing the aqueous phases in an isopropanol/solid carbon dioxide bath, the ether phase is collected and the ether is evaporated off under a stream of nitrogen at 30° C. The dry extract is then diluted in 150 μl of water and 150 μl of acetonitrile and centrifuged at 13,000 rpm for 10 minutes. 30 μl of the supernatant are injected into HPLC on a 4 mm diameter, 30 cm long μBondapack C18 column (WATERS). The mobile phase consists of 38% of water, 31% acetonitrile and 31% methanol. The flowrate is 2 ml/min and readings are taken at 245 nm.

[2] = test system: Staphylococcus aureus ATCC 25923; assay: minimum inhibiting concentration, microtitration in liquid medium, S. aureus
Method: (§4) The activity of the new derivatives according to the invention was tested in vitro by determining the minimum inhibiting concentration (MIC) of the molecules and their fungicidal (minimum fungicidal concentration MFC) or bactericidal (minimum bactericidal concentration MBC) activity. MFC and MBC are defined as the minimum dose which kills 99.9% of the organisms contained in the inoculum. Two species of yeasts pathogenic to man were used: Candida albicans ATCCe 10231 and Candida tropicalis ATCC 13803. Two species of bacteria were included in the screening: Staphylococcus aureus ATCC 25923 and Salmonella typhimurium LT2, strain Demerec. The MIC is determined after culturing overnight in a liquid medium, by the microtitration method in dishes containing 96 wells over a concentration range of 100 μM to 0.0008 μM. The inoculum contains 10^5 to 10^6 organisms/ml. The culture media consist on the one hand of RPMI to which 20% of foetal calf serum (inactivated for one hour at 56°) has been added in order to determine the fungistatic activity and Mueller-Hinton agar in order to determine the bacteriostatic power of the newly synthesized molecules on the other. The MFC and MBC for each of these molecules are obtained by subculturing a sample containing 10^3 organisms from each well giving negative results for the growth of the organisms, in a solid medium consisting of YM agar (yeasts) or Mueller-Hinton agar (bacteria) overnight at 37°.

[3] = test system: Salmonella typhimurium LT2, strain Demerec; assay: minimum inhibiting concentration, microtitration in liquid medium, S. typhimurium; conditions: Salmonella enterica, read-out: MIC S. typhimurium
Method: as §4

[4] = test system: Staphylococcus aureus ATCC 25923; assay: minimum bactericidal concentration, subculture on Mueller-Hinton agar, S. aureus
Method: as §4

[5] = test system: Candida albicans ATCCe 10231; assay: minimum fungicidal concentration, subculture on YM agar, C. albicans
Method: as §4

[6] = test system: Leydig tumor cells from mice (I-10, ATCC No. CCL83); assay: in vitro synthesis of steroids: 20α-hydroxy-4-pregnen-3-one secretion by Leydig tumor cells induced by cAMP; conditions: for 20α-OH-4-pregnen-3-one (1): dibutyryl-cAMP 1×10^-4 M, 3 hours incubation with compound, control 1744, basal 785; for activity at 0.94 µM: Mus musculus, Leydig, read-out: 20α-OH-4-pregnen-3-one (2) % enzyme activity relative to control
From the text: as §1, §2, §3

[7] = test system: Candida tropicalis ATCC 13803; assay: minimum fungicidal concentration, subculture on YM agar, C. tropicalis
Method: as §4

[8] = test system: Salmonella typhimurium LT2, strain Demerec; assay: minimum bactericidal concentration, subculture on Mueller-Hinton agar, S. typhimurium; conditions: Salmonella enterica, minimum dose which kills 99.9% of the organisms (MBC), overnight at 37°, read-out: MFC S. typhimurium
Method: as §4, with “The MFC and MBC for each of these molecules are obtained by subculturing a sample containing 10^3 organisms from each well giving negative results for the growth of the organisms, in a solid medium consisting of YM agar (yeasts) or Mueller-Hinton agar (bacteria) overnight at 37°.” left out

[9] = test system: Candida albicans ATCCe 10231; assay: minimum inhibiting concentration, microtitration in liquid medium, C. albicans; conditions: ATCCE10231, RPMI + 20% foetal calf serum, overnight, inoculum 10^5 to 10^6 organisms/ml
Method: as §4

[10] = test system: Candida tropicalis ATCC 13803; assay: minimum inhibiting concentration, microtitration in liquid medium, C. tropicalis; conditions: ATCC13803, RPMI + 20% foetal calf serum, overnight, inoculum 10^5 to 10^6 organisms/ml
Method: as §4

[11] = ATCC25923, read-out: MIC S. aureus
[12] = 9.4×10^-7 M, relative to cells induced by cAMP in the absence of inhibitor
[13] = ATCC25923, Mueller-Hinton, overnight, inoculum 10^5 to 10^6 organisms/ml, read-out: MIC S. aureus
[14] = ATCC25923, minimum dose which kills 99.9% of the organisms (MBC), overnight at 37°, read-out: MFC S. aureus
[15] = ATCCE10231, minimum dose which kills 99.9% of the organisms, YM agar, overnight at 37°, read-out: MFC C. albicans
[16] = ATCC13803, minimum dose which kills 99.9% of the organisms, YM agar, overnight at 37°, read-out: MFC C. tropicalis

Row | Compound | Progesterone (1) ([1]; 9.4×10^-7 M) | 20α-OH-4-pregnen-3-one (1) ([6]; 9.4×10^-7 M) | progesterone secretion, % of cAMP-induced control at 0.94 µM [1, 12] | MIC [2, 13] | MFC [5, 15] | MIC [9] | MIC [10] | activity at 0.94 µM [6, 12] | MFC [7, 16] | also measured
1 | Clc1ccc(C2(Cn3ccnc3)OCC(COc3ccc(N4CCNCC4)cc3)O2)c(Cl)c1 (stereo not drawn) [Cis-1-[A]-piperazine, reference compound] | 2783 ng of steroids/mg of cell prot | 1461 ng of steroids/mg of cell prot |  |  |  |  |  |  |  | progesterone secretion, % of cAMP-induced control at 0.94 µM [1]: 78%; MIC [2, 11]: 3.65 µM (≈ 1.79 µg/mL); MIC [3]: > 100 µM; MBC ([4]; ATCC25923, read-out: MFC S. aureus, minimum dose which kills 99.9% of the organisms (MBC), overnight at 37°): 25 µM (≈ 12.2 µg/mL); MFC ([5]; ATCCE10231, read-out: MFC C. albicans): 2.35 µM (≈ 1.15 µg/mL); activity at 0.94 µM [6]: 84%; MFC ([7]; ATCC13803, read-out: MFC C. tropicalis): 1.58 µM (≈ 0.773 µg/mL)
2 | CC(=O)N1CCN(c2ccc(OCC3COC(Cn4ccnc4)(c4ccc(Cl)cc4Cl)O3)cc2)CC1 (stereo not shown) [Ketoconazole, reference compound] | 1878 ng of steroids/mg of cell prot | 1296 ng of steroids/mg of cell prot | 53% | 20.4 µM (≈ 10.9 µg/mL) | 0.22 µM (≈ 0.117 µg/mL) | 0.053 µM | 0.049 µM | 74% | 4.88 µM (≈ 2.59 µg/mL) | MIC ([3]; Mueller-Hinton, overnight, inoculum 10^5 to 10^6 organisms/ml): > 100 µM; MBC [4, 14]: 50 µM (≈ 26.6 µg/mL); MBC [8]: > 100 µM
3 | Clc1ccc(COC(Cn2ccnc2)c2ccc(Cl)cc2Cl)c(Cl)c1 (stereo not shown) [Miconazole, reference compound] |  |  |  |  |  |  |  |  |  | MIC [2, 11]: 1.56 µM (≈ 0.649 µg/mL)
4 | NCC(=O)N1CCN(c2ccc(OCC3COC(Cn4ccnc4)(c4ccc(Cl)cc4Cl)O3)cc2)CC1 (stereo not drawn) [No. 1, Cis-4-[A]-1-(glycyl)piperazine] |  |  |  | 12 µM (≈ 6.55 µg/mL) | 2.38 µM (≈ 1.3 µg/mL) | 0.16 µM | 0.119 µM |  | 1.3 µM (≈ 0.71 µg/mL) | MBC [4, 14]: 25 µM (≈ 13.7 µg/mL)
5 | CC(N)C(=O)N1CCN(c2ccc(OCC3COC(Cn4ccnc4)(c4ccc(Cl)cc4Cl)O3)cc2)CC1 (stereo not drawn) [No. 2, Cis-4-[A]-1-(alanyl)piperazine] | 1939 ng of steroids/mg of cell prot | 1299 ng of steroids/mg of cell prot | 55% |  |  | 0.006 µM | 0.006 µM | 74% |  | 
6 | NCC(=O)NCC(=O)N1CCN(c2ccc(OCC3COC(Cn4ccnc4)(c4ccc(Cl)cc4Cl)O3)cc2)CC1 (stereo not drawn) [No. 3, Cis-4-[A]-1-(N-glycylglycyl)piperazine] |  |  |  |  |  | 0.48 µM | 0.48 µM |  |  | 
7 | O=C(O)CCC(=O)N1CCN(c2ccc(OCC3COC(Cn4ccnc4)(c4ccc(Cl)cc4Cl)O3)cc2)CC1 (stereo not drawn) [No. 4, Cis-4-[A]-1(succinyl)piperazine] |  |  |  | 50.8 µM (≈ 29.9 µg/mL) | 25 µM (≈ 14.7 µg/mL) | 19.8 µM | 15.2 µM |  | 50 µM (≈ 29.5 µg/mL) | MBC [4, 14]: > 100 µM
8 | O=C(O)CCC(=O)NCC(=O)N1CCN(c2ccc(OCC3COC(Cn4ccnc4)(c4ccc(Cl)cc4Cl)O3)cc2)CC1 (stereo not drawn) [No. 5, Cis-4-[A]-1-(N-succinylglycyl)piperazine] |  |  |  | 50 µM (≈ 32.3 µg/mL) |  | 25 µM | 25 µM |  |  | 
9 | CC(=O)NCC(=O)N1CCN(c2ccc(OCC3COC(Cn4ccnc4)(c4ccc(Cl)cc4Cl)O3)cc2)CC1 (stereo not drawn) [No. 6, Cis-4-[A]-1-(N-acetylglycyl)piperazine] |  |  |  |  | 6.25 µM (≈ 3.68 µg/mL) | 3.13 µM | 0.78 µM |  | 12.5 µM (≈ 7.36 µg/mL) | 
10 | CCCCCCCCC=CCCCCCCCC(=O)NCC(=O)N1CCN(c2ccc(OCC3COC(Cn4ccnc4)(c4ccc(Cl)cc4Cl)O3)cc2)CC1 (stereo not drawn) [No. 8, Cis-4-[A]-1-(N-oleylglycyl)piperazine] |  |  |  |  | 62.5 µM (≈ 50.7 µg/mL) | 31.2 µM | 53.1 µM |  | > 100 µM | 
11 | CC(C)CC(N)C(=O)N1CCN(c2ccc(OCC3COC(Cn4ccnc4)(c4ccc(Cl)cc4Cl)O3)cc2)CC1 (stereo not drawn) [No. 9, Cis-4-[A]-1-(leucyl)piperazine] | 2231 ng of steroids/mg of cell prot | 1725 ng of steroids/mg of cell prot | 63% |  |  |  |  | 99% |  | 
12 | NC(Cc1ccccc1)C(=O)N1CCN(c2ccc(OCC3COC(Cn4ccnc4)(c4ccc(Cl)cc4Cl)O3)cc2)CC1 (stereo not drawn) [No. 10, Cis-4-[A]-1-(phenylalanyl)piperazine] | 323 ng of steroids/mg of cell prot | 605 ng of steroids/mg of cell prot | 9% |  |  |  |  | 35% |  | 
